US6900200B2, “Tricyclic hydroxy carboxamides and derivatives thereof tocolytic oxytocin receptor antagonists” (Wyeth, priority 2001, dated 2005)
pIC50: −log10 of the molar value.

Test system: not given
Test: not given
Details: not given

melting point [°C] | Compound
169 to 172 | Cc1cc(C(=O)N2Cc3ccc(C(=O)N(C)CC(O)CO)n3Cc3ccccc32)ccc1-c1ccccc1C(F)(F)F (stereo not drawn) [Example 2, 10-[(2-Methyl-2′-trifluoromethyl-[1,1′-biphenyl]-4-yl)carbonyl]-10,11-dihydro-5H-pyrrolo[2,1-c][1,4]benzodiazepine-3-carboxylic acid (2,3-dihydroxy-propyl)-methyl-amide]
140 to 144 | COCCN1CCN(C(=O)c2ccc3n2Cc2ccccc2N(C(=O)c2ccc(-c4ccccc4C(F)(F)F)c(C)c2)C3)CC1 [Example 7, Methyl 2-{4-[(10-{[2-methyl-2′-trifluoromethyl-[1,1′-biphenyl]-4-yl]carbonyl}-10,11-dihydro-5H-pyrrolo[2,1-c][1,4]benzodiazepin-3-yl)carbonyl]piperazin-1-yl}ethyl ether]
184 to 186 | COc1cc2c(cc1OC)N(C(=O)c1ccc(-c3ccccc3C(F)(F)F)c(C)c1)Cc1ccc(C(=O)N(C)CC(O)CO)n1C2 (stereo not drawn) [Example 18, N-(2,3-Dihydroxypropyl)-7,8-dimethoxy-N-methyl-10-{[2-methyl-2′-trifluoromethyl-[1,1′-biphenyl]-4-yl]carbonyl}-10,11-dihydro-5H-pyrrolo[2,1-c][1,4]benzodiazepine-3-carboxamide]

Biological target: T1, human vasopressin V1a receptor subtype (Homo sapiens, UniProt P37288)
T1 construct: host or cells: CHO cells; pZeoSV vector for the Thibonnier line
Test: Vasopressin binding in CHO cell membranes expressing human vasopressin V1a subtype receptors ([3H]Manning ligand radioligand binding)
Details: @ 100 nM
Excerpt: Vasopressin Binding in Chinese Hamster Ovary Cell Membranes Expressing Human Vasopressin V1a Subtype Receptors
Chinese hamster ovary cells (CHO cells) stably transfected with the human vasopressin V1a subtype receptors were either obtained from BioSignal Inc., 1744 rue Williams, Montreal, Quebec, Canada or obtained from M. Thibonnier, Case Western Reserve University School of Medicine, Cleveland, Ohio.
A. Passaging and Amplification of Cells
CHO cells transfected with the human vasopressin V1a subtype receptors obtained from M. Thibonnier (pZeoSV vector) are allowed to grow to confluency (approx. >90%) in T-150 flasks under sterile conditions, in a cell culture medium of F-12 Nutrient Mixture (HAM) with L-glutamine (Gibco Cat. #11765-054) containing 15 mM HEPES (Gibco Cat. #15630-080), 1% antibiotic/antimycotic (add 5 mL 100×, Gibco Cat. #15240-062 per 500 mL F-12), 250 μg/mL Zeocin (add 1.25 mL of 100 mg/mL Invitrogen R-250-01 per 500 mL F-12) and 10% Fetal Bovine Serum (Qualified, heat inactivated, Gibco Cat. #16140-063). The medium is removed by aspiration and the cells are washed with 10 mL of Hank's Balanced Salt solution (Gibco Cat. #14175-095). The salt solution is removed by aspiration and the cells are trypsinized with 5 mL of trypsin-EDTA (0.05% trypsin, 0.53 mM EDTA-4Na, Gibco Cat. #25300-070) for 1 min. The trypsin is removed by aspiration and the cells dislodged by tapping. Cell Culture medium (e.g. 30 mL for 1:30 split) is immediately added and mixed well to inactivate trypsin. 1 mL of detached cells is added to new culture flasks containing fresh cell culture medium (e.g., into 25 mL per T-150 flask), and mixed gently. The cells are incubated at 37° C. in 5% CO2. The medium is changed at 3 to 4 days interval (or as appropriate). The cells grow to confluency (approx. >75%-95%) within 7-8 days. All steps are done under sterile conditions.
The cells are washed twice gently with Hank's Balanced Salt solution (e.g,. use 10 mL per T-150 flask). The excess is removed and the cells are bathed for 15-30 min. in an enzyme-free Cell Dissociation Buffer (e.g. use 8 mL Hank's Based, Gibco Cat. #13150-016 per T-150 flask) until the cells are loosened. The contents are transferred to centrifuge tubes (50 mL) kept in an ice bath. All subsequent steps are done at 4° C. The tubes are centrifuged at 300×g for 15 min (1380 rpm on SORVAL, Model RT6000D, using the rotor for 50 mL tubes). The supernatant is discarded and the cells suspended in homogenizing buffer(10 mM Tris-HCl containing 0.25 M sucrose and 1 mM EDTA, pH 7.4) ensuring that the volume of the buffer is about ten times the volume of the cell pellet. The cells are pooled into a centrifuge tube (50 mL) and homogenized with Polytron at setting 6 for 10 sec. The homogenate is transferred into a Potter-Elvjehm homogenizer and homogenized with 3 strokes. The homogenate is centrifuged at 1500×g for 10 min at 4° C. (3100 rpm using SORVAL, model RT6000D, using the rotor for 50 mL tubes). The pellet is discarded. The supernatant is centrifuged at 100,000×g for 60 min. at 4° C. (Beckman L8-80M ultracentrifuge; spin at 37,500 rpm with rotor type 70 Ti for 50 mL tubes; 38,000 rpm with type 80Ti for 15 mL tubes; or 35,800 rpm with rotor type 45Ti). The supernantant is discarded and the pellet suspended in 3 to 4 mL of Tris buffer (50 mM TRIS—HCl, pH 7.4). The protein content is estimated by the Bradford or Lowry method. The volume of the membrane suspension is adjusted with the membrane buffer (50 mM Tris-HCl containing 0.1% BSA and 0.1 mM PMSF) to give 3.0 mg/mL (or as appropriate) of protein. The membranes are aliquoted and stored at −70° C.
C. Radioligand Binding Assay […]

T1 sequence (P37288 whole entry): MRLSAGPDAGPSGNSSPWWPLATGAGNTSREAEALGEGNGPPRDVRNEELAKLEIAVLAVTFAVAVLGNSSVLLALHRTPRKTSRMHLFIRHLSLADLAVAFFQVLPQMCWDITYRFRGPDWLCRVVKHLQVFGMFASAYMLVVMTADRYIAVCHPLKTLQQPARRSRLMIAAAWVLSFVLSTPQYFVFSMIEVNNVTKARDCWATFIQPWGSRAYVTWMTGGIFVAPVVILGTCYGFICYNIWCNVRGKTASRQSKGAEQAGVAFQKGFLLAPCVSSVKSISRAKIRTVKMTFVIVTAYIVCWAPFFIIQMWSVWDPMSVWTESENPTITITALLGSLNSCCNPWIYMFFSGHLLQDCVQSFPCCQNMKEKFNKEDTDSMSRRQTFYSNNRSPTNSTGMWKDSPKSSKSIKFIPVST

inhibition at 0.1 µM [%] | Compound
53 | Cc1ccccc1-c1ccc(C(=O)N2Cc3ccc(C(=O)N4CCN(CCO)CC4)n3Cc3ccccc32)cc1C [Example 46, {10-[(2,2′-Dimethyl[1,1′-biphenyl]-4-yl)carbonyl]-10,11-dihydro-5H-pyrrolo[2,1-c][1,4]benzodiazepin-3-yl}[4-(2-hydroxyethyl)-1-piperazinyl]methanone]
12 | COc1ccccc1-c1ccc(C(=O)N2Cc3ccc(C(=O)N4CCN(CCO)CC4)n3Cc3ccccc32)cc1 [Example 47, [4-(2-Hydroxyethyl)-1-piperazinyl]{10-[(2′-methoxy[1,1′-biphenyl]-4-yl)carbonyl]-10,11-dihydro-5H-pyrrolo[2,1-c][1,4]benzodiazepin-3-yl}methanone]
7 | Cc1cc(C(=O)N2Cc3ccc(C(=O)N4CCN(CCO)CC4)n3Cc3ccccc32)ccc1-c1ccccc1C(F)(F)F [Example 48, [4-(2-Hydroxyethyl)-1-piperazinyl](10-{[2-methyl-2′-(trifluoromethyl)[1,1′-biphenyl]-4-yl)carbonyl}-10,11-dihydro-5H-pyrrolo[2,1-c][1,4]benzodiazepin-3-yl)methanone]
1 | COc1cccc(-c2cc(OC)c(C(=O)N3Cc4ccc(C(=O)N5CCN(CCO)CC5)n4Cc4ccccc43)cc2Cl)c1 [Example 49, {10-[(6-Chloro-3,3′-dimethoxy[1,1′-biphenyl]-4-yl)carbonyl]-10,11-dihydro-5H-pyrrolo[2,1-c][1,4]benzodiazepin-3-yl}[4-(2-hydroxyethyl)-1-piperazinyl]methanone]
52 | COc1cccc(-c2ccc(C(=O)N3Cc4ccc(C(=O)N5CCN(CCO)CC5)n4Cc4ccccc43)cc2OC)c1 [Example 50, {10-[(2,3′-Dimethoxy[1,1′-biphenyl]-4-yl)carbonyl]-10,11-dihydro-5H-pyrrolo[2,1-c][1,4]benzodiazepin-3-yl}[4-(2-hydroxyethyl)-1-piperazinyl]methanone]
7 | COc1cc(C(=O)N2Cc3ccc(C(=O)N4CCN(CCO)CC4)n3Cc3ccccc32)ccc1-n1c(C)ccc1C [Example 52, {10-[4-(2,5-Dimethyl-1H-pyrrol-1-yl)-3-methoxybenzoyl]-10,11-dihydro-5H-pyrrolo[2,1-c][1,4]benzodiazepin-3-yl}[4-(2-hydroxyethyl)-1-piperazinyl]methanone]

Continued, compound first:

Compound | inhibition at 0.1 µM [%]
COCCN1CCN(C(=O)c2ccc3n2Cc2ccccc2N(C(=O)c2ccc(-c4ccccc4C(F)(F)F)c(C)c2)C3)CC1 [Example 7, Methyl 2-{4-[(10-{[2-methyl-2′-trifluoromethyl-[1,1′-biphenyl]-4-yl]carbonyl}-10,11-dihydro-5H-pyrrolo[2,1-c][1,4]benzodiazepin-3-yl)carbonyl]piperazin-1-yl}ethyl ether] | -2
COc1cc2c(cc1OC)N(C(=O)c1ccc(-c3ccccc3C(F)(F)F)c(C)c1)Cc1ccc(C(=O)N(C)CC(O)CO)n1C2 (stereo not drawn) [Example 18, N-(2,3-Dihydroxypropyl)-7,8-dimethoxy-N-methyl-10-{[2-methyl-2′-trifluoromethyl-[1,1′-biphenyl]-4-yl]carbonyl}-10,11-dihydro-5H-pyrrolo[2,1-c][1,4]benzodiazepine-3-carboxamide] | 0
COc1ccccc1-c1ccc(C(=O)N2Cc3ccc(C(=O)N4CCN(CCO)CC4)n3Cc3ccccc32)cc1C [Example 40, [4-(2-Hydroxyethyl)-1-piperazinyl]{10-[(2′-methoxy-2-methyl[1,1′-biphenyl]-4yl)carbonyl]-10,11-dihydro-5H-pyrrolo[2,1-c][1,4]benzodiazepin-3-yl}methanone] | 13
COc1cc(C(=O)N2Cc3ccc(C(=O)N4CCN(CCO)CC4)n3Cc3ccccc32)ccc1-c1cccc2ccccc12 [Example 41, [4-(2-Hydroxyethyl)-1-piperazinyl]{10-[3-methoxy-4-(1-naphthyl)benzoyl]-10,11-dihydro-5H-pyrrolo[2,1-c][1,4]benzodiazepin-3-yl}methanone] | 12
COc1cc(C(=O)N2Cc3ccc(C(=O)N4CCN(CCO)CC4)n3Cc3ccccc32)ccc1-c1ccccc1C [Example 42, [4-(2-Hydroxyethyl)-1-piperazinyl]{10-[(2-methoxy-2′-methyl[1,1′-biphenyl]-4yl)carbonyl]-10,11-dihydro-5H-pyrrolo[2,1-c][1,4]benzodiazepin-3-yl}methanone] | 49
COc1ccccc1-c1ccc(C(=O)N2Cc3ccc(C(=O)N4CCN(CCO)CC4)n3Cc3ccccc32)cc1OC [Example 43, {10-[(2,2′-Dimethoxy[1,1′-biphenyl]-4-yl)carbonyl]-10,11-dihydro-5H-pyrrolo[2,1-c][1,4]benzodiazepin-3-yl}[4-(2-hydroxyethyl)-1-piperazinyl]methanone] | 1
COc1cccc(-c2ccc(C(=O)N3Cc4ccc(C(=O)N5CCN(CCO)CC5)n4Cc4ccccc43)cc2C)c1 [Example 44, [4-(2-Hydroxyethyl)-1-piperazinyl]{10-[(3′-methoxy-2-methyl[1,1′-biphenyl]-4yl)carbonyl]-10,11-dihydro-5H-pyrrolo[2,1-c][1,4]benzodiazepin-3-yl}methanone] | 17
Cc1ccccc1-c1ccc(C(=O)N2Cc3ccc(C(=O)N4CCN(CCO)CC4)n3Cc3ccccc32)cc1 [Example 45, [4-(2-Hydroxyethyl)-1-piperazinyl]{10-[(2′-methyl[1,1′-biphenyl]-4-yl)carbonyl]-10,11-dihydro-5H-pyrrolo[2,1-c][1,4]benzodiazepin-3-yl}methanone] | 57

Same assay, conditions: value printed in parentheses

pIC50 | Compound
6.10 | Cc1cc(C(=O)N2Cc3ccc(C(=O)N(C)CC(O)CO)n3Cc3ccccc32)ccc1-c1ccccc1C(F)(F)F (stereo not drawn) [Example 2, 10-[(2-Methyl-2′-trifluoromethyl-[1,1′-biphenyl]-4-yl)carbonyl]-10,11-dihydro-5H-pyrrolo[2,1-c][1,4]benzodiazepine-3-carboxylic acid (2,3-dihydroxy-propyl)-methyl-amide]
6.86 | Cc1ccc(-c2ccc(C(=O)N3Cc4ccc(C(=O)N(C)CC(O)CO)n4Cc4ccccc43)cc2)c2ccccc12 (stereo not drawn) [Example 26, 10-{[4-(4-Methyl-naphthalen-1-yl)phenyl]carbonyl}-10,11-dihydro-5H-pyrrolo[2,1-c][1,4]benzodiazepine-3-carboxylic acid (2,3-dihydroxy-propyl)-N-methylamide]
6.12 | COc1cc(-c2ccccc2C)c(Cl)cc1C(=O)N1Cc2ccc(C(=O)N3CCN(CCO)CC3)n2Cc2ccccc21 [Example 39, {10-[(6-Chloro-3-methoxy-2′-methyl[1,1′-biphenyl]-4-yl)carbonyl]-10,11-dihydro-5H-pyrrolo[2,1-c][1,4]benzodiazepin-3-yl}[4-(2-hydroxyethyl)-1-piperazinyl]methanone]

Compound | pIC50
{(2S)-1-[(10-{[2-Methoxy-2(trifluoromethyl)[1,1′-biphenyl]-4-yl]carbonyl}-10,11-dihydro-5H-pyrrolo[2,1-c][1,4]benzodiazepin-3-yl)carbonyl]pyrrolidin-2-yl}-methanol [Example 36] | 5.82
